Patent US20250375413A1, “METHOD OF INHIBITING LIPASE ACTIVITY IN AGING” (The Regents of the University of California, priority 2024, published 2025)
Entries after “also recorded” stand apart in the source; their conditions may differ.

Assays:
pancreatic trypsin = settings: old-treated rats (24 months, 14 days oral) compared with young
Description: A femoral venous catheter was placed after general anesthesia (pentobarbital sodium, 50 mg/kg [Abbott Laboratories, North Chicago, Il1], intramuscularly after local anesthesia [2% lidocaine HCl; Hospira, Inc, Lake Forrest, Il1]). Tissues (intestine, liver, lung, heart, kidney, brain, mesentery, skin) were immediately collected after euthanasia (Beuthanasia i.v., 120 mg/kg, Schering-Plough Animal Health Corp, Union, NJ), fixed (formalin, 10%, neutral buffered, 1 hr), postfixed (fresh formalin, 24 hrs), and stored (formalin, 10%). The period between initial anesthesia and fixation of the tissues was below 60 minutes. […]
Primary antibodies were diluted to 1-1.5 μl/1000 μl of phosphate-buffered saline. […] No counterstain was applied to facilitate quantitative label intensity measurements. […] For each tissue, the labeling procedures were standardized among the animal groups to permit a quantitative comparison of label densities between ages and treatment with digital image analysis.
Images of the immunolabel density were recorded at multiple magnifications (between 10× objective, numerical aperture 0.25, and 60×, numerical aperture 1.4). They were recorded under standard light conditions with fixed optical and digital camera settings (SPOT Insight® GIGABIT camera, Sterling Height) so that the camera serves as a quantitative light intensity meter without pixel intensity saturation. […]

[1] = Blood glucose level at tissue collection; type: in vivo, rat; settings: old rats, two-week treatment
Description: At the time of tissue collection, fresh femoral arterial blood was used to measure the blood glucose level (Contour®, Bayer® Diabetes Care, Tarrytown, NY) and the percent of glycated hemoglobin levels (AIC Home Test; Bristol-Myers Squibb®; NY, NY).

[2] = test system: mucin layer on the epithelium of the small intestine; assay: Mucin layer density in small intestine (alcian blue); type: in vivo, rat; settings: old rats, 14 days oral, upper jejunum
Description: (§1) Small intestine: Full-thickness tissue blocks of the wall of the proximal jejunum (3×5 mm) were fixed from all sides in 10% formalin. Digestive enzymes were detected with primary and secondary antibodies labeled with 3, 3′-diaminobenzidine (DAB, Peroxidase Substrate Kit, ab64238, Abcam®).
The mucin-containing layer on the epithelial cells of the small intestine was stained using alcian blue (pH 2.5, kt 003; Diagnostic BioSystems, Pleasanton, CA) followed by a rinse in distilled water and mounted on a microscope slide (Vector Mount AQ Aqueous Mounting Medium, Vector® Laboratories, Burlington, CA).

[3] = Effect of oral treatment on digestion / body weight; type: in vivo, rat; settings: old rats, temporary oral treatment in drinking water
Description: Male Wistar rats (Harlan Sprague Dawley Inc., Indianapolis, IN) at maturity (4 months, 300 to 350 gm) and at old age (24 months, 375 to 450 gm) were included in the study. The animals were maintained on standard laboratory chow (8604 Teklad rodent diet; Harlan Laboratories, Indianapolis, Ind) without restriction and water ad libitum and maintained in a separate room without pathogen-free conditions.

insulin receptor = assay: Brain insulin receptor extracellular domain immunolabel density; type: in vivo, rat; settings: old rats, two-week treatment
Description: Sections without primary antibodies were used as negative controls.
Insulin receptors' densities on random tissue sections, labeled with an antibody against the extracellular domain, are digitally recorded by placing an optical window on the cell and determining light intensity at a constant incident light Io.

[4] = test system: pancreatic trypsin and amylase; assay: Digestive enzyme (trypsin, amylase) accumulation in the intestinal wall, whole mount co-labeling; type: in vivo, rat; settings: old rats, 14 days oral; villi tips and submucosa
Description: as §1
To co-label the small intestine for mucin and trypsin, the fixed intestine was immersed in the primary antibody against trypsin and stained with DAB substrate. Thereafter the tissue section was embedded in resin and sectioned into thin (1 μm) sections. The mucin label (alcian blue), was applied to the thin section, coverslipped, and imaged.

tranexamic acid [trypsin inhibitor]
trypsin label density in the brain (pancreatic trypsin): almost reached the level in the young (no significant difference)
trypsin label density in the mesentery (pancreatic trypsin): not different from the young
plasma/blood glucose level [1]: mitigated; also recorded: restored in part
mucin layer density on intestinal villi [2]: partially restored; also recorded: restored in part
attenuation of digestion, such as reduction of body weight [3]: did not lead to a detectable attenuation of digestion
density of insulin receptor ectodomains in cerebral cortex (insulin receptor): in part restored; also recorded: restored in part
accumulation of trypsin and amylase in the intestinal wall [4]: attenuated
